Measurements published in US8148400B2, “Thiazolyl compounds useful as kinase inhibitors” (Bristol-Myers Squibb Company, priority 2006, dated 2012).
pIC50: −log10 of the molar value. Where a name gives a salt, the structure may show the parent alone.

Molecular target: IGF1-receptor (Homo sapiens, UniProt P08069)
Assay: IGF1-Receptor Tyrosine Kinase Assay
Format: biochemical
Settings: ATP 25 μM; FL-peptide 1.5 μM; IGF1-Receptor 14 nM; 60 min room temperature; read-out: IGF-1R IC50
Procedure: D. IGF1-Receptor Tyrosine Kinase Assay
The assays were performed in U-bottom 384-well plates. The final assay volume was 30 μl prepared from 15 μl additions of enzyme and substrates (fluoresceinated IGF1R substrate peptide and ATP) and test compounds in assay buffer (100 mM HEPES pH 7.4, 10 mM MnCl2, 0.015% Brij35 and 4 mM DTT). The reaction was initiated by the combination of IGF1-receptor with substrates and test compounds. The reaction was incubated at room temperature for 60 min. and terminated by adding 30 μl of 35 mM EDTA to each sample. The reaction mixture was analyzed on the Caliper LabChip 3000 by electrophoretic separation of the fluorescent substrate and phosphorylated product. Inhibition data were calculated by comparison to no enzyme control reactions for 100% inhibition and vehicle-only reactions for 0% inhibition. The final concentration of reagents in the assays is ATP, 25 μM; FL-peptide, 1.5 μM; IGF1-Receptor, 14 nM; and DMSO, 1.6%. Dose response curves were generated to determine the concentration required to inhibit 50% of kinase activity (IC50). Compounds were dissolved at 10 mM in dimethylsulfoxide (DMSO) and evaluated at eleven concentrations, each in duplicate. IC50 values were derived by non-linear regression analysis.

Sequence of IGF1-receptor (P08069 31-1367): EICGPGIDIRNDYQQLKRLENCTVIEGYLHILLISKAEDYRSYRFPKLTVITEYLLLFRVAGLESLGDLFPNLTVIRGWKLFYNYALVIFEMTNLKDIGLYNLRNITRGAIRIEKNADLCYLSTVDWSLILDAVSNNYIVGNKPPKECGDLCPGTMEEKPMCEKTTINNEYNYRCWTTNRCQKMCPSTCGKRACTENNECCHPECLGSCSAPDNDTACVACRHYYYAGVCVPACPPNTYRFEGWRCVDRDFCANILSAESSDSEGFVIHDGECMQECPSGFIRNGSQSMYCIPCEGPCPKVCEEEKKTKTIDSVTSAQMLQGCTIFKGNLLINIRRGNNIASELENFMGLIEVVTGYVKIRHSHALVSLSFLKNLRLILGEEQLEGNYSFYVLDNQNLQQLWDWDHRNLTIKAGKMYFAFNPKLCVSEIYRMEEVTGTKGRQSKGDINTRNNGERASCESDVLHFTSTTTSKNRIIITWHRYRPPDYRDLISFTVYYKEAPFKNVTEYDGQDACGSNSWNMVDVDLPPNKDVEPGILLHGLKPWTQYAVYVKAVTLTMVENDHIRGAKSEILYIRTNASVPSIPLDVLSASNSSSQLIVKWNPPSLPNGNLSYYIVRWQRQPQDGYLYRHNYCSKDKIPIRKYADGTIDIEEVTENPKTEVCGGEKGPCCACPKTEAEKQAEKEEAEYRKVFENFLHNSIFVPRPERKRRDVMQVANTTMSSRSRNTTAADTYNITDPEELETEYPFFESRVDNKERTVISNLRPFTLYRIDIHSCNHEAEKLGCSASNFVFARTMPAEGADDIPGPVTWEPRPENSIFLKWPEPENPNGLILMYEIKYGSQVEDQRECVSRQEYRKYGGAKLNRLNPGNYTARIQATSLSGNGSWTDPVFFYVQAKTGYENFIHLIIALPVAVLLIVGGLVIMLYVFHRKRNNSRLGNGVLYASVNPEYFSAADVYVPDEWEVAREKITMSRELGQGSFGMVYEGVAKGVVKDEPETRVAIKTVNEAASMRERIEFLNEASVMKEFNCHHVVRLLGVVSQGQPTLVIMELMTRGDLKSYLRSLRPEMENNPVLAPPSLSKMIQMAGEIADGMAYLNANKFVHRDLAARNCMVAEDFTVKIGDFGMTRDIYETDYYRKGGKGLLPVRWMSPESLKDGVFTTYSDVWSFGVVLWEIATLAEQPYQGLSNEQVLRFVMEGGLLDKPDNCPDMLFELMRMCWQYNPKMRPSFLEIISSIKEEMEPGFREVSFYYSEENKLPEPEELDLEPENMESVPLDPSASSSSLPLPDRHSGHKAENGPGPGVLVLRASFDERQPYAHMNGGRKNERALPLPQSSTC

| pIC50 | Compound |
| --- | --- |
| 6.16 | O=C(NCCc1c[nH]c2ccc(O)cc12)c1nccc(Sc2cnc(Nc3ccccn3)s2)c1F [Example 33, 3-Fluoro-N-(2-(5-hydroxy-1H-indol-3-yl)ethyl)-4-(2-(pyridin-2-ylamino)thiazol-5-ylthio)picolinamide] |
| 5.53 | CC(C)(C)CNCC(CNC(=O)c1nccc(Sc2cnc(Nc3ccccn3)s2)c1F)(c1ccccc1)c1ccccc1 [Example 36, 3-Fluoro-N-(3-(neopentylamino)-2,2-diphenylpropyl)-4-(2-(pyridin-2-ylamino)thiazol-5-ylthio)picolinamide] |
| 6.05 | Cc1ccnc(Nc2ncc(Sc3ccnc(C(=O)NCC(CN4CCCCC4)(c4ccccc4)c4ccccc4)c3F)s2)c1 [Example 49, N-(2,2-diphenyl-3-(piperidin-1-yl)propyl)-3-fluoro-4-(2-(4-methylpyridin-2-ylamino)thiazol-5-ylthio)picolinamide] |
| 8.52 | Cc1ccnc(Nc2ncc(Sc3ccnc(C(=O)NCC(CN(C)CCO)(c4ccccc4)c4ccccc4)c3F)s2)c1 [Example 52, 3-Fluoro-N-(3-((2-hydroxyethyl)(methyl)amino)-2,2-diphenylpropyl)-4-(2-(4-methylpyridin-2-ylamino)thiazol-5-ylthio)picolinamide] |
| 6.70 | Cc1ccnc(Nc2ncc(Sc3ccnc(C(=O)NCC(CNC(C)(C)C)(c4ccccc4)c4ccccc4)c3F)s2)c1 [Example 55, N-(3-(tert-butylamino)-2,2-diphenylpropyl)-3-fluoro-4-(2-(4-methylpyridin-2-ylamino)thiazol-5-ylthio)picolinamide] |
| 6.05 | Cc1ccnc(Nc2ncc(Sc3ccnc(C(=O)NCC(c4ccccc4)c4ccccc4C)c3F)s2)c1 (stereo not drawn) [Example 56, 3-fluoro-4-(2-(4-methylpyridin-2-ylamino)thiazol-5-ylthio)-N-(2-phenyl-2-o-tolylethyl)picolinamide] |
| 5.82 | Cc1ccnc(Nc2ncc(Sc3ccnc(C(=O)NCC(c4ccccc4)c4ccccc4Br)c3F)s2)c1 (stereo not drawn) [Example 58, N-(2-(2-bromophenyl)-2-phenylethyl)-3-fluoro-4-(2-(4-methylpyridin-2-ylamino)thiazol-5-ylthio)picolinamide] |
| 6.60 | O=C(NCC(c1ccccc1)c1ccccc1CO)c1nccc(Sc2cnc(Nc3ccccn3)s2)c1F (stereo not drawn) [Example 63, 3-Fluoro-N-(2-(2-(hydroxymethyl)phenyl)-2-phenylethyl)-4-(2-(pyridin-2-ylamino)thiazol-5-ylthio)picolinamide] |
| 9.00 | Cc1ccnc(Nc2ncc(Sc3ccnc(C(=O)NCC(c4ccccc4)c4ccccc4CO)c3F)s2)c1 (stereo not drawn) [Example 65, 3-Fluoro-N-(2-(2-(hydroxymethyl)phenyl)-2-phenylethyl)-4-(2-(4-methylpyridin-2-ylamino)thiazol-5-ylthio)picolinamide] |
| 6.54 | Cc1ccnc(Nc2ncc(Sc3ccnc(C(=O)NCC(c4ccccc4)c4cccc(CO)c4)c3F)s2)c1 (stereo not drawn) [Example 67, 3-Fluoro-N-(2-(3-(hydroxymethyl)phenyl)-2-phenylethyl)-4-(2-(4-methylpyridin-2-ylamino)thiazol-5-ylthio)picolinamide hydrochloride] |
| 8.30 | CCNCC(CNC(=O)c1nccc(Sc2cnc(Nc3cc(C)ccn3)s2)c1F)(c1ccccc1)c1ccccc1 [Example 69, N-(3-(ethylamino)-2,2-diphenylpropyl)-3-fluoro-4-(2-(4-methylpyridin-2-ylamino)thiazol-5-ylthio)picolinamide] |
| 8.40 | CCCC(O)(CNC(=O)c1nccc(Sc2cnc(Nc3ccc(CNC(=O)CN(C)C)cn3)s2)c1F)c1ccccc1 (stereo not drawn) [Example 77, 4-(2-(5-((2-(Dimethylamino)acetamido)methyl)pyridin-2-ylamino)thiazol-5-ylthio)-3-fluoro-N-(2-hydroxy-2-phenylpentyl)picolinamide] |
| 8.52 | CCCC(O)(CNC(=O)c1nccc(Sc2cnc(Nc3ccc(CNC)cn3)s2)c1F)c1ccccc1 (stereo not drawn) [Example 82, 3-Fluoro-N-(2-hydroxy-2-phenylpentyl)-4-(2-(5-((methylamino)methyl)pyridin-2-ylamino)thiazol-5-ylthio)picolinamide] |
| 6.40 | CCC[C@@](O)(CNC(=O)c1nccc(Sc2cnc(Nc3nccc4sccc34)s2)c1F)c1ccccc1 [Example 83, (S)-3-fluoro-N-(2-hydroxy-2-phenylpentyl)-4-(2-(thieno[3,2-c]pyridin-4-ylamino)thiazol-5-ylthio)picolinamide] |

| Compound | pIC50 |
| --- | --- |
| (S)-3-Fluoro-N-(2-(2-(hydroxymethyl)phenyl)-2-phenylethyl)-4-(2-(pyridin-2-ylamino)thiazol-5-ylthio)picolinamide and (R)-3-fluoro-N-(2-(2-(hydroxymethyl)phenyl)-2-phenylethyl)-4-(2-(pyridin-2-ylamino)thiazol-5-ylthio)picolinamide [Example 64] | 6.50 |
